Data as given in patent publication US20010016952A1, “Pathogenesis of cardiomyopathy” (priority 1999, published 2001).
Entries after “also recorded” stand apart in the source; their conditions may differ.

Legend:
Format in all cases: in vivo, mouse
[1] = system: wild type or Sgca-null mice; test: Treadmill exercise of wild type or Sgca-null mice after Nicorandil; settings: after administration of Nicorandil
Method: (§1) Treadmill exercise. […] Animals were exercised at 12-17 m/min for about 10 min and for 25-30 m/min for the remaining 50 min. If an animal became exhausted, the shock bar of this lane was turned off and the animal was allowed to rest at the back of the treadmill for a short period of time. Wild type (n=20), Sgca- (n=20) and Sgcd-null mice (n=42) were divided in approximately equal numbers of male and females. All mice were injected with Evans blue dye (0.5 mg EBD/0.05 ml PBS) intraperitoneally 8 hr before the exercise. Animals were injected with 50 μl of this solution per 10-g body weight. All surviving animals were kept alive for 36-48 hr and serial sections of cardiac muscle were studied for Evans blue uptake and for histopathological signs of necrosis by using routine H&E technique. The effect of Nicorandil treatment on treadmill performance in wild type (n=6), Sgca- (n=6) and Sgcd-null mice (n=20) was studied after 3 days of intraperitoneal injection of Nicorandil at a dose of 1 mg/kg body weight twice a day. Quantification of Evans blue positive stained areas in sections of cardiac muscle from Sgca- and Sgcd-null mice (n=20, each group) was done by using the Scion image program. The percentage of positive stained areas was calculated by dividing the area of staining by the total area of the analyzed heart section.

[2] = system: Sgcd-null mice; test: Systemic blood pressure after Nicorandil; settings: at the dose given
[3] = system: Sgcd-null mice; test: Microfil perfusion of coronary arteries
Description: The Microfil® perfusion technique was used in vivo in order to determine whether disruption of the SG-SSPN complex in smooth muscle of coronary arteries indeed leads to vascular perfusion abnormalities. Wild type, Sgca-null and Sgcd-null mice at the age of 2-6 months were perfused, and cleared sections of the heart were visualized using trans-illumination with low-power magnification. The coronary microvessels were distributed normally and were smoothly tapered in both wild type and Sgca-null mice. […] Pre- and poststenotic dilation as an appearance of microaneurysm was frequently associated with these constrictions. Extensive areas of focal vascular lumen narrowing and a generalized sparseness of perfusion were observed. […] Quantification of vascular abnormalities in Sgcd-null mice at different ages were determined by calculating the mean numbers of abnormal vessels ±SEM in 10 nonadjacent microscopic fields at a magnification of 10×. No lesions were detected in Sgca-null and wild type mice.
Microfil® perfusion. In order to study coronary microvascular perfusion mice were anesthetized with Phenobarbital 75 mg/kg body weight and a bilateral sternum incision was performed to expose the left atrium. 1-1.5 ml of Microfil®, a liquid silicon rubber (Flow tech, Carver, Mass.) was perfused into the left atrium. The heart continued beating for about 1 min and after contraction stopped the heart was rapidly excised and cured on ice for about 10 min. […] Microvascular perfusion was visualized with both epi- and tans-illumination and examined under low power magnification (×10-20). the vascular irregularities in Sgcd-null mice at different ages (2, 4, and 6 months) were quantified by counting the number of abnormal individual vessel segments in 10 nonadjacent microscopic field using a low magnification (10×) and the mean number of abnormal vessels were calculated for each mouse. An average number of abnormal vessels ±SEM were then calculated for each age group. Vessels segments with more than one abnormality were only counted once.

[4] = system: Sgcd-null mice; test: Treadmill exercise of Sgcd-null mice with Evans blue dye uptake and H&E histopathology of cardiac muscle
Method: Treadmill exercise is one of the primary methods used clinically to induce cardiovascular stress in human and animals (Fewell et al., Am. J. Physiol. 273: H1595-H1605 (1997)) and is used to detect cardiovascular abnormalities (e.g. coronary artery dysfunction) that may not be readily apparent at rest. […] All mice were injected with Evans blue dye (EBD) 8 hr before the exercise. EBD is a small molecular mass tracer that tightly complexes with serum albumin. Normally, this is a membrane impermeable molecule, but if the sarcolemma integrity is compromised this dye readily penetrates into the cytoplasm of muscle fibers (Matsuda et al., J. Biochem. (Tokyo) 118: 959-964 (1995); Straub et al., J. Cell Biol. 139: 375-385 (1997)). EBD uptake as well as routine histopathology was examined in the cardiac muscle.
as §1, with “All surviving animals were kept alive for 36-48 hr and serial sections of cardiac muscle were studied for Evans blue uptake and for histopathological signs of necrosis by using routine H&E technique.” left out

[5] = Sgcd-null mice after administration of Nicorandil

## O=C(NCCO[N+](=O)[O-])c1cccnc1 [Nicorandil]
[1]
  general behavior during exercise and cardiac muscle abnormalities: No alteration of the general behavior during exercise or any cardiac muscle abnormalities was observed
[2]
  systemic blood pressure: did not lower the systemic blood pressure
[3]; Nicorandil treated Sgcd-null mice
  constrictions and focal luminal narrowing of the coronary microvascular bed (perfusion studies): free of constrictions and focal luminal narrowing
[3]; [5]
  density of the vasculature (Microfil perfusion): overall greater density of the vasculature
  vascular constrictions of coronary arteries (Microfil perfusion): no evidence of vascular constrictions
[4]; 2 months old exercised Sgcd-null mice, intraperitoneal Nicorandil for 3 days prior to the exercise
  EBD uptake in cardiac muscle: No EBD uptake was observed
[4]; Sgcd-null mice (n=20), treadmill exercise, Nicorandil intraperitoneal 1 mg/kg body weight twice a day for 3 days prior to exercise
  development of multiple myocardial ischemic lesions: prevented mortality and the development of multiple myocardial lesions; also recorded: prevent the development of multiple myocardial ischemic lesions in all Sgcd-null mice
[4]; Sgcd-null mice, Nicorandil given prior to the application of physical stress
  mortality in treadmill stressed mice: prevented mortality
